According to patent publication US11459315B2, “Modulators of methyl modifying enzymes, compositions and uses thereof” (Constellation Pharmaceuticals, Inc., priority 2017, dated 2022):

These molecules were tested against PRC2 containing wt EZH2 (Homo sapiens (Human), UniProt Q15910) (assay: EZH2 biochemical assay (IC50), 3H-SAM incorporation into biotinylated H3 peptide). Settings: EZH2 (IC50), 30 pM PRC2 containing wt EZH2; 3-5 h pre-incubation.
Chain of PRC2 containing wt EZH2 (Q15910 whole entry): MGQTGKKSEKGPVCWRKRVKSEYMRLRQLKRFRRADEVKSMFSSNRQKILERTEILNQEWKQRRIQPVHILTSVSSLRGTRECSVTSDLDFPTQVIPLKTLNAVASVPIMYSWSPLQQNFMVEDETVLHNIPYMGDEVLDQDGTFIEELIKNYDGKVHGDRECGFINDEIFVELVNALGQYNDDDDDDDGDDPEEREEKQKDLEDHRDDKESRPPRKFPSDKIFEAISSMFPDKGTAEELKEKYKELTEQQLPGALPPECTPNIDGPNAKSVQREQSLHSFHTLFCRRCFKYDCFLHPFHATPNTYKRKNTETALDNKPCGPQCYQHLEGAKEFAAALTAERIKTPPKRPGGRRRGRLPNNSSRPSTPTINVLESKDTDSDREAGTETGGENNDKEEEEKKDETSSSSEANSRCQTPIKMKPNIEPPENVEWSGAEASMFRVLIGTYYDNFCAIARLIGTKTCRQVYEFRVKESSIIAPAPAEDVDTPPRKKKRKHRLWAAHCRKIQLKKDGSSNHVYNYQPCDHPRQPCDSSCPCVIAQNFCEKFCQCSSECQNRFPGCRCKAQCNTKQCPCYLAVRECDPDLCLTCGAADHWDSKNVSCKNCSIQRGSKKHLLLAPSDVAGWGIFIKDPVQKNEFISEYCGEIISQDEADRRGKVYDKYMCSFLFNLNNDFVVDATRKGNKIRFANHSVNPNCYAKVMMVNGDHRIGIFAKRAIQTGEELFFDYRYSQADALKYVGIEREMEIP
Chain of PRC2 containing wt EZH2 (O75530 whole entry partner): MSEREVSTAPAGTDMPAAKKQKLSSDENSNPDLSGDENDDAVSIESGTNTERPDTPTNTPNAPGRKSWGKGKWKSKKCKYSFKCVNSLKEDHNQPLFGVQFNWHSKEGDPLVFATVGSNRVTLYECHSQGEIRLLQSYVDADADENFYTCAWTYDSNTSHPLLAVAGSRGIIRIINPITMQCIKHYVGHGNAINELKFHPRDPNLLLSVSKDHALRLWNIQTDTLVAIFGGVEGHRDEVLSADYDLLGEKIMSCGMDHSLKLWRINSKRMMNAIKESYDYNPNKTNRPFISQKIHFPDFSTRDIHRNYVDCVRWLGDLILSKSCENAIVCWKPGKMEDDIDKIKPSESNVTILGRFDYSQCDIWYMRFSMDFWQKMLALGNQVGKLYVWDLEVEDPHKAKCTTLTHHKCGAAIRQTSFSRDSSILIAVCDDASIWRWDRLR
Chain of PRC2 containing wt EZH2 (Q15022 whole entry partner): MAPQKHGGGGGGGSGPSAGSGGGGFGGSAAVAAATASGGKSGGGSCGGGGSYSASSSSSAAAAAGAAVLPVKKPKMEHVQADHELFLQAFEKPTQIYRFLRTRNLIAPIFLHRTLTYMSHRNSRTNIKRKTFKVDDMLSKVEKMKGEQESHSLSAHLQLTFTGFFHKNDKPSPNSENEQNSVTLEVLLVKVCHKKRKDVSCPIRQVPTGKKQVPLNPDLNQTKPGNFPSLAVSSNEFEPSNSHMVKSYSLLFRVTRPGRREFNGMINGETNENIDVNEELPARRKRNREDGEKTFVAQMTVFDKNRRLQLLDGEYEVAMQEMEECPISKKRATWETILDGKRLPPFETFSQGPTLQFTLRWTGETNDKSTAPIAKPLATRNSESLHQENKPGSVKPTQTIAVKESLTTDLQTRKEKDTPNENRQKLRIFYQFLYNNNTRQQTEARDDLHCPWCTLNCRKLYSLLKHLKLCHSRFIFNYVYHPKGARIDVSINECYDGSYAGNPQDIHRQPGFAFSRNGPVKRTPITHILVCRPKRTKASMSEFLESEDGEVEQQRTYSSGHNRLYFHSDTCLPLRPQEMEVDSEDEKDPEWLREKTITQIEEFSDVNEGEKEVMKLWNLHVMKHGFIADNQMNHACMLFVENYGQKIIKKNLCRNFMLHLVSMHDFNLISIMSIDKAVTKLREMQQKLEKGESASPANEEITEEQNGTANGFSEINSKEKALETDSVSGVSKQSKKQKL
Chain of PRC2 containing wt EZH2 (Q09028 whole entry partner): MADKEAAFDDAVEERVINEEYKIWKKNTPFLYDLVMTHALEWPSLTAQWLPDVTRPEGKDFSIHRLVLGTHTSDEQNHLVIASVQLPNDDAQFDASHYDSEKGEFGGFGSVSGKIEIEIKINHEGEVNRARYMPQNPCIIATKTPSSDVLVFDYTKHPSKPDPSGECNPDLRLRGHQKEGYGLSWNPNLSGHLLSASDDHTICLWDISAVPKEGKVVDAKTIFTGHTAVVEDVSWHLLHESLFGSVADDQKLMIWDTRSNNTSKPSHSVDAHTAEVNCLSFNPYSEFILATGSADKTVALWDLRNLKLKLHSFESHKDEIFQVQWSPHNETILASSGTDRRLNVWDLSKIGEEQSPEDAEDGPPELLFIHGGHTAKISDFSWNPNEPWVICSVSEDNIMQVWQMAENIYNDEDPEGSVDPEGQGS
Chain of PRC2 containing wt EZH2 (Q6ZN18 whole entry partner): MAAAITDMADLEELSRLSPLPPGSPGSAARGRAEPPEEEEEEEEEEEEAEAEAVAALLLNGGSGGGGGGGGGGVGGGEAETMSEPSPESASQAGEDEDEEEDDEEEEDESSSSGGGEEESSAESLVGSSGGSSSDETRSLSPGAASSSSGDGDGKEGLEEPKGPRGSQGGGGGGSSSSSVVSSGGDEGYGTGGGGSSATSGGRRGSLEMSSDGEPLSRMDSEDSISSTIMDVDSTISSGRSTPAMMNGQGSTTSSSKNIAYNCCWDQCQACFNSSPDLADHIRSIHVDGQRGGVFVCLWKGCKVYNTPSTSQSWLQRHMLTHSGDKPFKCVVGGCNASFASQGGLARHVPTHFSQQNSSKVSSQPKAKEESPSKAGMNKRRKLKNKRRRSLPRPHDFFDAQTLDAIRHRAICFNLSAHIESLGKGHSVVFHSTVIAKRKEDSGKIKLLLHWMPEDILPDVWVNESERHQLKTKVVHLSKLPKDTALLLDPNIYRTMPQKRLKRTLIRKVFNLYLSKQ
Protocol: EZH2 biochemical assay (IC50): Compound potencies were assessed through incorporation of ^3H-SAM into a biotinylated H3 peptide. Specifically, 30 pM PRC2 containing wt EZH2 (pentameric complex prepared in-house) was pre-incubated with 450 nM SAM, 450 nM ^3H-SAM, 2 μM H3K27me3 activating peptide (H2N-[…](Kme3)[…]-amide) and compounds (as 10 point duplicate dose response titrations in DMSO, final assay 0.8% DMSO (v/v)) for 3-5 h in 50 mM Tris (pH 8.5), 1 mM DTT, 0.07 mM Brij-35, 0.1% BSA, and 0.8% DMSO in a total volume of 12.5 μl. Reaction was initiated with biotinylated H3 substrate peptide (H2N-[…](Kme1)[…]-NTPEGBiot) as a 2 μM stock in 12.5 μl of buffer and allowed to react at room temperature for 18-22 h. Quenching was accomplished by addition of 20 μl of STOP solution (50 mM Tris (pH 8.5), 200 mM EDTA, 2 mM SAH). 35 μl of the quenched solution was transferred to streptavidin coated FlashPlates (PerkinElmer), incubated 1-2 h, washed, and read in a TopCount Reader (PerkinElmer). IC50s were calculated in Genedata Screener using non-linear least square four parameter fits, where the four parameters were IC50, Hill slope, pre-transitional baseline (0% INH), and post-transitional baseline (100% INH).
IC50 values are reported as follows: “A” indicates an IC50 value of less than 0.5 nM; “B” indicates an IC50 value of 0.5 nM to 5 nM; “C” indicates an IC50 value of greater than 5 nM for each enzyme; and “ND” is not determined.
CSc1cc(C)[nH]c(=O)c1CNC(=O)c1c(C)n([C@H](C)C2OCC(N3CC(C)(C)C3)CO2)c2ccccc12 (single isomer, unassigned) [78 (isomer 1)] was tested, and the IC50 was under 0.5 nM. CSc1cc(C)[nH]c(=O)c1CNC(=O)c1c(C)n([C@H](C)C2OCC(N3CC(C)(C)C3)CO2)c2ccccc12 (single isomer, unassigned) [78 (isomer 2)] was tested, and the IC50 was over 5 nM. For CSc1cc(C)[nH]c(=O)c1CNC(=O)c1c(C)n([C@H](C)C2CCC(N3CC[C@@H](F)C3)CC2)c2ccccc12 (single isomer, unassigned) [79 (isomer 1)], the IC50 was under 0.5 nM. Molecule CSc1cc(C)[nH]c(=O)c1CNC(=O)c1c(C)n([C@H](C)C2CCC(N3CC(F)C3)CC2)c2ncc(F)cc12 (single isomer, unassigned) [84 (isomer 1)] has an IC50 of under 0.5 nM. CSc1cc(C)[nH]c(=O)c1CNC(=O)c1c(C)n([C@H](C)C2OCC(N3CC(F)(F)C3)CO2)c2ccccc12 (single isomer, unassigned) [85 (isomer 1)] showed an IC50 of under 0.5 nM. Molecule CSc1cc(C)[nH]c(=O)c1CNC(=O)c1c(C)n([C@H](C)C2OCC(N3CC(F)(F)C3)CO2)c2ccccc12 (single isomer, unassigned) [85 (isomer 2)] has an IC50 of 0.5 to 5 nM.

Same assay, conditions: read-out: EZH2 (IC50); 30 pM PRC2 containing wt EZH2; 3-5 h pre-incubation
COC1CCC([C@@H](C)n2c(C)c(C(=O)NCc3c(SC)cc(C)[nH]c3=O)c3cncnc32)CC1 (single isomer, unassigned) [41 (isomer 2)] showed an IC50 of under 0.5 nM. Work on CSc1cc(C)[nH]c(=O)c1CNC(=O)c1c(C)n([C@H](C)C2CCC(O)CC2)c2cc(F)ccc12 (single isomer, unassigned) [44 (isomer 2)] yielded an IC50 of under 0.5 nM. With CSc1cc(C)[nH]c(=O)c1CNC(=O)c1c(C)n([C@H](C)C2CCC(O)CC2)c2ncc(Cl)cc12 (single isomer, unassigned) [53 (isomer 2)] the IC50 was under 0.5 nM. For CSc1cc(C)[nH]c(=O)c1CNC(=O)c1c(C)n([C@H](C)C2CCC(OC(F)F)CC2)c2ccccc12 (single isomer, unassigned) [60 (isomer 2)], the IC50 was under 0.5 nM. Molecule CSc1cc(C)[nH]c(=O)c1CNC(=O)c1c(C)n([C@H](C)C2CCN(C3CC(F)C3)CC2)c2ccccc12 (single isomer, unassigned) [64 (isomer 2)] has an IC50 of under 0.5 nM. With COCCOC1CCC([C@@H](C)n2c(C)c(C(=O)NCc3c(SC)cc(C)[nH]c3=O)c3ccccc32)CC1 (single isomer, unassigned) [67 (isomer 1)] the IC50 was under 0.5 nM. CSc1cc(C)[nH]c(=O)c1CNC(=O)c1c(C)n([C@H](C)C2CCC(N3CCOCC3)CC2)c2ccccc12 (single isomer, unassigned) [75 (isomer 2)] gave an IC50 of under 0.5 nM. With CSc1cc(C)[nH]c(=O)c1CNC(=O)c1c(C)n([C@H](C)C2CCC(N3CC[C@@H](F)C3)CC2)c2ccccc12 (single isomer, unassigned) [79 (isomer 2)] the IC50 was under 0.5 nM. CSc1cc(C)[nH]c(=O)c1CNC(=O)c1c(C)n([C@H](C)C2CCC(N3CC(F)C3)CC2)c2ncc(F)cc12 (single isomer, unassigned) [84 (isomer 2)] was tested, and the IC50 was under 0.5 nM.

These molecules were tested on H3K27me3 mark in HeLa cells (EZH2) (assay: H3K27me3 Alpha Hela Assay (AlphaLISA)). Settings: HeLa cells, 72 hrs; read-out: EZH2 Cell H3K27me3 Alpha HeLa (EC50 K27me3).
Assay type: cell-based
Protocol: H3K27me3 Alpha Hela Assay (AlphaLISA). Ten different doses of each test compound (in a series of 3-fold dilutions) were plated in duplicate 384-well tissue culture treated plates (Catalog #6007680; Perkin Elmer, Waltham, Mass.). Hela cells grown in culture were trypsinized and counted using a Countess® cell counter (Catalog #C10281; Life Technologies, Grand Island, N.Y.). Cell were diluted to 67,000 cells per mL in 10% DMEM (Catalog #10569-010 Life Technologies, Grand Island, N.Y.) and 15 μL (1,000 cells) were plated into each well using the Biotek MicroFlo™ Select Dispenser (BioTek Instruments, Inc. Vermont, USA),) of the 384-well plate. Plates were incubated at 37° C./5% CO2 for 72 hrs. One of the duplicate plates was processed for HeLa assay and the other for viability.
5 μL of Cell-Histone Lysis buffer (1×) (Catalog #AL009F1 Perkin Elmer; Waltham, Mass.) per well was added to the plate processed for AlphaLISA and the plate was incubated at RT for 30 minutes on a plate shaker with low speed (Model #4625-Q Thermo Scientific; Waltham, Mass.). Then, 10 μL per well Histone Extraction buffer (catalog #AL009F2; Perkin Elmer; Waltham, Mass.) was added and the plate further incubated at RT for 20 min on plate shaker with low speed. Next, 10 μL of 5× mix of anti-K27me3 acceptor beads plus Biotinylated anti-Histone H3 (C-ter) Antibody (diluted to 3 nM final) (Catalog #AL118 Perkin Elmer; Waltham, Mass.) was added in each well. Dilution of the acceptor beads and anti-Histone H3 was done in 1× Histone Detection buffer (Catalog #AL009F3 Perkin Elmer; Waltham, Mass.) which was produced by diluting the 10× stock provided. The plate was sealed with an aluminum plate sealer and incubated at 23° C. for 60 min. Next, 10 μL 5× solution of Streptavidin Donor beads were added (Catalog #6760002 Perkin Elmer; Waltham, Mass.) (20 μg/mL final in 1× Histone Detection Buffer), =plate was sealed with Aluminum plate sealer and incubated at 23° C. for 30 min. The plates were then read using an EnVision-Alpha Reader (model #2104 Perkin Elmer; Waltham, Mass.).
Data from both assays was analyzed using Genedata (Basel, Switzerland). Data files were imported to Genedata and assay conditions were specified. A unique Analysis ID was created and the data files analysed to measure dose-dependent inhibition of H3K27me3 mark and cell viability respectively. Readout of DMSO wells were used to normalize the data. Resulting curves were fitted using Smart fit application (Genedata; Basel, Switzerland). The data was checked for quality, validated and integrated in excel format using Stardrop (Optibruim, Cambridge, UK).
EC50 values are reported as follows: “A” indicates an EC50 value of less than 10 nM; “B” indicates an EC50 value of 10 nM to 100 nM; “C” indicates an EC50 value of greater than 100 nM; and “ND” is not determined.
In the case of COC1CCC([C@@H](C)n2c(C)c(C(=O)NCc3c(SC)cc(C)[nH]c3=O)c3cncnc32)CC1 (single isomer, unassigned) [41 (isomer 2)], the EC50 is reported as under 10 nM. With CSc1cc(C)[nH]c(=O)c1CNC(=O)c1c(C)n([C@H](C)C2CCC(O)CC2)c2cc(F)ccc12 (single isomer, unassigned) [44 (isomer 2)] the EC50 was under 10 nM. For CSc1cc(C)[nH]c(=O)c1CNC(=O)c1c(C)n([C@H](C)C2CCC(O)CC2)c2ncc(Cl)cc12 (single isomer, unassigned) [53 (isomer 2)], the EC50 was under 10 nM. For CSc1cc(C)[nH]c(=O)c1CNC(=O)c1c(C)n([C@H](C)C2CCC(OC(F)F)CC2)c2ccccc12 (single isomer, unassigned) [60 (isomer 2)], the EC50 was under 10 nM. In the case of CSc1cc(C)[nH]c(=O)c1CNC(=O)c1c(C)n([C@H](C)C2CCN(C3CC(F)C3)CC2)c2ccccc12 (single isomer, unassigned) [64 (isomer 2)], the EC50 is reported as 10 to 100 nM. CSc1cc(C)[nH]c(=O)c1CNC(=O)c1c(C)n([C@H](C)C2CCC(N3CCOCC3)CC2)c2ccccc12 (single isomer, unassigned) [75 (isomer 2)] was tested, and the EC50 was 10 to 100 nM. With CSc1cc(C)[nH]c(=O)c1CNC(=O)c1c(C)n([C@H](C)C2OCC(N3CC(C)(C)C3)CO2)c2ccccc12 (single isomer, unassigned) [78 (isomer 1)] the EC50 was 10 to 100 nM. For CSc1cc(C)[nH]c(=O)c1CNC(=O)c1c(C)n([C@H](C)C2OCC(N3CC(C)(C)C3)CO2)c2ccccc12 (single isomer, unassigned) [78 (isomer 2)], the EC50 was over 100 nM. CSc1cc(C)[nH]c(=O)c1CNC(=O)c1c(C)n([C@H](C)C2CCC(N3CC[C@@H](F)C3)CC2)c2ccccc12 (single isomer, unassigned) [79 (isomer 2)] showed an EC50 of 10 to 100 nM. CSc1cc(C)[nH]c(=O)c1CNC(=O)c1c(C)n([C@H](C)C2CCC(N3CC(F)C3)CC2)c2ncc(F)cc12 (single isomer, unassigned) [84 (isomer 2)] was tested, and the EC50 was 10 to 100 nM. For CSc1cc(C)[nH]c(=O)c1CNC(=O)c1c(C)n([C@H](C)C2OCC(N3CC(F)(F)C3)CO2)c2ccccc12 (single isomer, unassigned) [85 (isomer 1)], the EC50 was 10 to 100 nM. For CSc1cc(C)[nH]c(=O)c1CNC(=O)c1c(C)n([C@H](C)C2OCC(N3CC(F)(F)C3)CO2)c2ccccc12 (single isomer, unassigned) [85 (isomer 2)], the EC50 was over 100 nM.

Same assay, conditions: Homo sapiens, HeLa, 72 h, HeLa cells, 72 hrs; read-out: EZH2 Cell H3K27me3 Alpha HeLa (EC50 K27me3)
COCCOC1CCC([C@@H](C)n2c(C)c(C(=O)NCc3c(SC)cc(C)[nH]c3=O)c3ccccc32)CC1 (single isomer, unassigned) [67 (isomer 1)] was tested, and the EC50 was 10 to 100 nM. CSc1cc(C)[nH]c(=O)c1CNC(=O)c1c(C)n([C@H](C)C2CCC(N3CC[C@@H](F)C3)CC2)c2ccccc12 (single isomer, unassigned) [79 (isomer 1)] gave an EC50 of under 10 nM. CSc1cc(C)[nH]c(=O)c1CNC(=O)c1c(C)n([C@H](C)C2CCC(N3CC(F)C3)CC2)c2ncc(F)cc12 (single isomer, unassigned) [84 (isomer 1)] gave an EC50 of under 10 nM.
